# Assays:
# [1] = test system: ROM (radiation induced oral mucositis) in the tongue; assay: Study (1): single dose x-ray irradiation induced ROM, necropsy and histology of the tongue; format: in vivo, mouse (BDF1 male); conditions: 30 mg/kg SQ once daily day -2 to 7
# From the text: Modified hyaluronan (referred to herein as GM-1111) used to treat the animals is a sulfated hyaluronan methylated at the primary C-6 hydroxyl position of an N-acetyl-glucosamine residue and having a molecular weight of approximately 5.5 kDa.
# Approximately 7-8 weeks of old male BDF1 (B6D2F1) mice were purchased from Charles River Laboratories (MA). These animals were housed in a room with fully controlled environment (temperature, humidity, and light/dark cycle). The feed and water were freely accessible to all animals throughout the entire study period. All animals were acclimatized for one week prior to the irradiation and they were approximately 8-10 weeks old at the time of the study. The experimental protocol (16-07008) was approved by the University of Utah Institutional Animal Care and Use Committee (IACUC). […]
# (§1) Body weights of the animals were measured every other day from 2 days prior to the first irradiation day (day 0). Clinical signs were monitored every day during the entire experimental period. […]
# Histological observations were graded for each category and the sum of these grades was used to designate the severity of each sample. The resulting severity scores from all irradiation groups were analyzed with Kruskal-Wallis test followed by Dunnett-type multiple comparison test using nparcomp package. […]
# myeloperoxidase (MPO) = assay: Study (1): tissue concentrations of myeloperoxidase (MPO) in tongue homogenate by ELISA; format: in vivo, mouse (BDF1 male); conditions: 30 mg/kg SQ once daily day -2 to 7; 20 Gy; day 8; vehicle/irradiated 50%
# From the text: Prior to the x-ray irradiation, all animals except the healthy control group were gently guided into a restrainer for short durations. This behavioral training was held once daily for two days and it was designed to reduce potential stresses on the animals during the once daily irradiation session. For head-only irradiation, the restrainers containing the animals were shielded with a lead block that had rectangular holes to expose the head. X-rays were generated by RS2000 Biological Research Irradiator (Rad Source Technologies, GA) with parameters set as 160 kV/25 mA. For study (1), the animals were divided into 4 groups (10 mice for each group)—vehicle (phosphate buffered saline) treated healthy, vehicle treated ROM, GM-1111 treated ROM, and HA treated ROM. […]
# as §1
# All tongue samples were thawed on ice prior to homogenization. […] The total protein concentration of the supernatant was measured for each sample using the Pierce™ Protein Assay kit. Tissue concentrations of IL-6 and myeloperoxidase (MPO) were then determined with commercially available ELISA kits: IL-6 (BioLegend, CA) and MPO (R&D Systems, MN). […]
substance,measurement,setting,value
Hyaluronic acid [HA],"Overall effect against ROM (necropsy, MPO, histology)",[1]; 20 Gy,did not show any measurable therapeutic benefits
same,Ulcerative lesions in the tongue at necropsy (Toluidine Blue staining),"[1]; 20 Gy head-only x-ray on day 0, necropsy day 8",severe ulcerative lesions in the tongue similar to the vehicle treated animals
same,Animals with higher than normal range of MPO in the tongue,myeloperoxidase (MPO),about 70%
